Values of other authors in US20070041998A1, “Use of alum and a th1 immune response inducing adjuvant for enhancing immune responses” (Intercell AG, priority 2003, published 2007).
Where no end group is shown, it is not given here.

Experiments:
Staphylococcus aureus = conditions: Staphylococcus aureus-infected mice
human neutrophils = conditions: via cell surface calreticulin

KLKLLLLLKLK-NH2 [synthetic antimicrobial peptide (Nakajima 1997; Cho 1999)]
chemotherapeutic activity (Staphylococcus aureus): significant chemotherapeutic activity | production of superoxide anion (O2−) (human neutrophils): activated to produce the superoxide anion
